The text below walks through data of patent US9174983B2, “Pyrroloquinoline quinone disodium salt crystal and method for producing the same” (MITSUBISHI GAS CHEMICAL COMPANY, INC., priority 2011, dated 2015).

Common to all, as to format: physicochemical
Data set [1] is described as follows: Water content by the Karl Fischer method. Here is the method:
The water content (% by weight) of each crystal was determined by the Karl Fischer method.

Data set [2] is described as follows: Heat stability on heating in edible oil (high performance liquid chromatography). Conditions: after heating in edible oil ODO at 150° C. for 30 minutes.
The nature of data set [3]: Dispersibility test of PQQ disodium crystals in soybean oil (precipitation time). Conditions: 5 mg crystal in 200 μL soybean oil, room temperature, time until all floating crystals precipitated to the bottom, index of dispersibility. From the text: In this example, the PQQ disodium crystal in Crystalline Form 1 and Crystalline Form 2 was compared in dispersibility in edible oils with the conventional crystals.
After drying, the pressure in the vessel was returned to atmospheric pressure, and immediately the glass vessel was closed with a lid. […] After drying, the temperature within the flask was reduced to room temperature with nitrogen gas refluxed.
Then, they were allowed to stand still at room temperature, and the time period until all of the crystals floating on the soybean oil were precipitated to the bottom of the vessel was measured, which was used as an index of dispersibility for each crystal.

A short description of data set [4]: Thermogravimetric analysis of water content. Particulars: crystal formed at 180° C. From the text: However, this crystal was unstable.
The mark [5] stands for this setting: resulting crystal after the drying step, % by weight.

Take `O=C([O-])c1cc(C(=O)[O-])c2c(n1)C(=O)C(=O)c1cc(C(=O)O)[nH]c1-2.[Na+].[Na+]` [Comparative Example 1, reference compound]: the water content was determined as 14.5% in data set [1] (crystal as precipitated with ethanol, before drying) and 9.6% in data set [1] (setting [5]).
“pyrroloquinoline quinone disodium crystal [Crystalline Form 1]”: in data set [2], the “amount of impurities contained in the crystal” value was “did not increase”. The water content is reported as 0.7% in data set [1] (setting [5]); 2.2% in data set [1] (resulting crystal after the drying step, % by weight, listed as Example 2); 1.9% in data set [1] (resulting crystal after the drying step, % by weight, listed as Example 3). This compound registered a Precipitation time in data set [3] of 30 min.
In the case of “pyrroloquinoline quinone disodium crystal [Crystalline Form 2]”, the water content in data set [4] is ~0%. The Precipitation time in data set [3] was determined as 45 min.
“pyrroloquinoline quinone disodium crystal [Precursor crystal, reference compound]” showed a water content in data set [1] (after disposal at 40° C. and relative humidity 75%) of 12.7%. For the same compound, the Precipitation time in data set [3] and in data set [3] (listed as precursor crystal) was 0.5 min each time.
